Drawing on ChEMBL document CHEMBL3243921, “2-Pyrrolidinylideneureas, a new class of central nervous system agents” (J Med Chem, 1978), this text covers Activity for 34 compounds.

Test [1] deals with Mus musculus. Put plainly: Muscle relaxant activity in po dosed mouse assessed as increase in strychnine-induced persistant convulsive threshold. It is filed as functional.
Test [2] relates to Mus musculus. Put plainly: Hypnotic activity in po dosed mouse assessed as increase in pentylenetetrazol-induced persistent-convulsive threshold. It is filed as functional, organism-based.
Test [3] deals with Mus musculus. Description: Anticonvulsant activity in po dosed mouse assessed as blockade of supramaximal electroshock-induced […] seizure. It is filed as functional. For orientation: In the maximal electroshock model the usual endpoint is tonic extension of the hind limbs.
In test [4] the test system is Mus musculus. Description: Muscle relaxant activity in po dosed mouse assessed as blockade of pentylenetetrazol-induced tonic extensor seizure. It is filed as functional.
Test [5] relates to Mus musculus. Description: Sedative-hypnotic activity in po dosed mouse assessed as increase in pentylenetetrazol-induced persistent-convulsive threshold. It is filed as functional, organism-based.
A further test relates to Rattus norvegicus. Put plainly: Antianxiety activity in ip dosed rat assessed as effect on increase in punished responses administered qd for 5 days measured every day for 5 days. It is filed as functional.

Activity calls are given as the source filed them.

For `CN1CCC/C1=N\C(=S)Nc1ccccc1`, the outcome in the test on Mus musculus [1], in the test on Mus musculus [2], with Mus musculus [3], in the test with Mus musculus [4], with Mus musculus [5] and in the test on Rattus norvegicus was inactive.
As for `CN1CC(c2ccccc2)C/C1=N\C(=O)Nc1cccc(Cl)c1` (centres undefined), the outcome with Mus musculus [1], in the test with Mus musculus [2], in the test with Mus musculus [3], in the test with Mus musculus [4], in the test with Mus musculus [5] and in the test on Rattus norvegicus was inactive.
With `CC(C)c1ccccc1NC(=O)/N=C1\CCCN1C`, the outcome in the test with Mus musculus [1], with Mus musculus [2], with Mus musculus [3], in the test on Mus musculus [4], with Mus musculus [5] and in the test with Rattus norvegicus was Active.
Turning to `O=C(/N=C1\CCCN1)NC1CCCCC1`, in the test with Rattus norvegicus, the result was inactive.
Consider `CN1CCC/C1=N\C(=O)Nc1ccc(N(C)C)cc1`, for which the outcome in the test on Mus musculus [1], in the test on Mus musculus [3], with Mus musculus [4] and with Rattus norvegicus was inactive.
For the compound `CN1CCC/C1=N\C(=O)Nc1ccc(Cl)cc1`, the result in the test with Mus musculus [1], with Mus musculus [3], in the test with Mus musculus [4] and in the test with Rattus norvegicus was inactive.
In the case of `CN1CCC/C1=N\C(=O)Nc1ccc(S(C)(=O)=O)cc1`, the outcome in the test on Mus musculus [1], in the test on Mus musculus [3], with Mus musculus [4] and in the test on Rattus norvegicus was inactive.
Turning to `Cc1cccc(C)c1NC(=O)/N=C1\CCC(C)N1C` (centres undefined), the outcome in the test with Mus musculus [1], in the test with Mus musculus [2], in the test with Mus musculus [3], in the test with Mus musculus [4], in the test with Mus musculus [5] and in the test with Rattus norvegicus was inactive.
On to `Cc1ccc(Cl)c(C)c1NC(=O)/N=C1\CCCN1C`, for which the outcome in the test with Mus musculus [1] and in the test with Mus musculus [4] was Active.
For `CN1CC(C)(C)C/C1=N\C(=O)Nc1cccc(Cl)c1`, the result in the test on Mus musculus [1], in the test on Mus musculus [2], in the test on Mus musculus [3], in the test with Mus musculus [4], in the test on Mus musculus [5] and in the test with Rattus norvegicus was inactive.
`Cc1cc(N(C)C)cc(C)c1NC(=O)/N=C1\CCCN1C`: the outcome in the test with Mus musculus [1] and with Mus musculus [4] was Active.
For the compound `CN1CCC/C1=N\C(=O)Nc1c(Cl)cc(Cl)cc1Cl`, the result with Mus musculus [1] and in the test with Mus musculus [4] was Active.
In the case of `CN1CCC/C1=N\C(=O)Nc1ccccc1Cl`, the outcome with Mus musculus [1], with Mus musculus [2], with Mus musculus [3], in the test with Mus musculus [4], in the test with Mus musculus [5] and with Rattus norvegicus was Active.
On to `Cc1cccc(C)c1NC(=O)/N=C1\CCCCCN1C`, for which the outcome in the test on Mus musculus [1], in the test on Mus musculus [2], in the test on Mus musculus [3], in the test on Mus musculus [4], with Mus musculus [5] and in the test with Rattus norvegicus was inactive.
On to `Cc1cc(C)c(NC(=O)/N=C2\CCCN2C)c(C)c1`, for which the result with Mus musculus [1] and in the test with Mus musculus [4] was Active.
Turning to `O=C(/N=C1\CCCN1Cc1ccccc1)Nc1c(Cl)cccc1Cl`, the result with Mus musculus [1], in the test on Mus musculus [2], in the test with Mus musculus [3], with Mus musculus [4], in the test on Mus musculus [5] and with Rattus norvegicus was inactive.
For the compound `O=C1NC(=O)C(c2ccccc2)(c2ccccc2)N1`, the result in the test on Mus musculus [3] was Active.
For the compound `CN1CCC/C1=N\C(=O)Nc1ccc(F)cc1`, the outcome in the test on Mus musculus [1], in the test on Mus musculus [3], with Mus musculus [4] and with Rattus norvegicus was inactive.
Regarding `Cc1ccc(NC(=O)/N=C2\CCCN2C)cc1`, the result in the test on Mus musculus [1], in the test on Mus musculus [3], with Mus musculus [4] and in the test with Rattus norvegicus was inactive.
With `CN1CCC/C1=N\C(=O)Nc1ccc(O)cc1`, the result in the test with Mus musculus [1], in the test with Mus musculus [3], with Mus musculus [4] and in the test on Rattus norvegicus was inactive.
In the case of `CSc1ccc(NC(=O)/N=C2\CCCN2C)cc1`, the outcome with Mus musculus [1], in the test with Mus musculus [3], with Mus musculus [4] and with Rattus norvegicus was inactive.
With `CN1CCC/C1=N\C(=O)Nc1ccc(OCc2ccccc2)cc1`, the result with Mus musculus [1], in the test with Mus musculus [3], in the test on Mus musculus [4] and in the test on Rattus norvegicus was inactive.
Take `CCOc1ccc(NC(=O)/N=C2\CCCN2C)cc1`: the result with Mus musculus [1], with Mus musculus [3], with Mus musculus [4] and in the test on Rattus norvegicus was inactive.
On to `CN1CCC/C1=N\C(=O)Nc1cc(C(F)(F)F)cc(C(F)(F)F)c1`, for which the result in the test on Mus musculus [3] was Active.
`CN1CCC/C1=N\C(=O)Nc1ccc(C(C)(C)C)cc1`: the result with Mus musculus [1], in the test on Mus musculus [3], in the test with Mus musculus [4] and in the test with Rattus norvegicus was inactive.
As to `CCOC(=O)c1ccc(NC(=O)/N=C2\CCCN2C)cc1`, the result in the test with Mus musculus [1], in the test on Mus musculus [3], with Mus musculus [4] and in the test with Rattus norvegicus was inactive.
Turning to `CN1CCC/C1=N\C(=O)Nc1c(Br)cc(Br)cc1Br`, the outcome in the test with Mus musculus [1] and with Mus musculus [4] was Active.
For `CCCCCCCCCCCCCCCCCCNC(=O)/N=C1\CCCN1`, the result in the test on Rattus norvegicus was inactive.
For `CN1CCC/C1=N\C(=O)Nc1ccc(C(F)(F)F)cc1`, the outcome in the test on Rattus norvegicus was inactive.
With `CN1CCC/C1=N\C(=O)Nc1ccc(Br)cc1`, the outcome in the test with Mus musculus [1], with Mus musculus [3], in the test with Mus musculus [4] and with Rattus norvegicus was inactive.
On to `CN1CCC/C1=N\C(=O)Nc1cccc([N+](=O)[O-])c1`, for which the result with Rattus norvegicus was inactive.
For the compound `COc1ccc(NC(=O)/N=C2\CCCN2C)cc1`, the result in the test on Mus musculus [1], in the test with Mus musculus [3], in the test on Mus musculus [4] and with Rattus norvegicus was inactive.
In the case of `O=C(/N=C1\CCCN1)Nc1ccccc1`, the outcome with Mus musculus [1] and in the test with Mus musculus [4] was Active.
For the compound `O=C(/N=C1\CCCN1)NC12CC3CC(CC(C3)C1)C2`, the result in the test on Rattus norvegicus was inactive.
